# Reference: PubChem BioAssay AID342 (DTP/NCI, 2004)
# “And” between values parts separate entries of the source, which are not always exact repeats. Equal entries are not always repeated.
# System: Swiss mice, Sarcoma 180 sc, mean tumor weight T/C
# Experiment: NCI In Vivo Anticancer Drug Screen. Data for tumor model Sarcoma 180 (subcutaneous) in Swiss mice
# Conditions: endpoint: mean tumor weight, higher = larger tumour
# In short: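 T/C ratio: treated over vehicle-treated controls, measuring survival or tumor size in transplanted-tumor mice.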
# [1] = dose: 25.0 mg/kg/injection, schedule: Q01DX007 (ip), vehicle: saline
# [2] = dose: 50.0 mg/kg/injection, schedule: Q01DX007 (ip), vehicle: saline
# [3] = dose: 100.0 mg/kg/injection, schedule: Q01DX007 (ip), vehicle: saline
# [4] = dose: 125.0 mg/kg/injection, schedule: Q01DX007 (ip), vehicle: carboxymethylcellulose (CMC)
compound,measurement,setting,value
NC1(C(=O)O)CCCC1,T/C,"dose: 4.62 mg/kg/injection, schedule: Q#A X014 (ip), vehicle: carboxymethylcellulose (CMC)",86 % of control
same,T/C,"dose: 6.25 mg/kg/injection, schedule: Q#A X014 (ip), vehicle: carboxymethylcellulose (CMC)",72 % of control
same,T/C,"dose: 9.25 mg/kg/injection, schedule: Q#A X014 (ip), vehicle: carboxymethylcellulose (CMC)",101 % of control
same,T/C,"dose: 12.5 mg/kg/injection, schedule: Q#A X014 (ip), vehicle: carboxymethylcellulose (CMC)",101 % of control
same,T/C,"dose: 15.0 mg/kg/injection, schedule: Q01DX007 (ip), vehicle: water",75 % of control
same,T/C,"dose: 18.5 mg/kg/injection, schedule: Q#A X014 (ip), vehicle: carboxymethylcellulose (CMC)",77 % of control
same,T/C,[1],75 % of control
same,T/C,"dose: 25.0 mg/kg/injection, schedule: Q#A X014 (ip), vehicle: carboxymethylcellulose (CMC)",75 % of control
same,T/C,"dose: 30.0 mg/kg/injection, schedule: Q01DX007 (ip), vehicle: water",78 % of control
same,T/C,"dose: 33.0 mg/kg/injection, schedule: Q#A X014 (ip), vehicle: saline",56 % of control
same,T/C,"dose: 37.0 mg/kg/injection, schedule: Q#A X014 (ip), vehicle: carboxymethylcellulose (CMC)",50 % of control
same,T/C,[2],64 % of control
same,T/C,"dose: 50.0 mg/kg/injection, schedule: Q#A X014 (ip), vehicle: carboxymethylcellulose (CMC)",35 % of control
same,T/C,"dose: 50.0 mg/kg/injection, schedule: Q#A X014 (ip), vehicle: saline",44 % of control
same,T/C,"dose: 60.0 mg/kg/injection, schedule: Q01DX007 (ip), vehicle: water",35 % of control
same,T/C,"dose: 62.0 mg/kg/injection, schedule: Q01DX007 (ip), vehicle: saline",61 % of control
same,T/C,"dose: 75.0 mg/kg/injection, schedule: Q#A X014 (ip), vehicle: saline",23 % of control
same,T/C,[3],47 % of control
same,T/C,"dose: 120.0 mg/kg/injection, schedule: Q01DX007 (ip), vehicle: water",22 % of control
same,T/C,"dose: 125.0 mg/kg/injection, schedule: Q01DX007 (ip), vehicle: saline",30 % of control
same,T/C,"dose: 200.0 mg/kg/injection, schedule: Q01DX007 (ip), vehicle: saline",22 % of control
CN(C)c1ccc(C(C#N)C(C#N)c2ccccc2)cc1 (stereo not given),T/C,"dose: 8.85 mg/kg/injection, schedule: Q#A X014 (ip), vehicle: methylcellulose (MC)",69 % of control and 84 % of control
same,T/C,"dose: 26.6 mg/kg/injection, schedule: Q#A X014 (ip), vehicle: methylcellulose (MC)",4 % of control
same,T/C,"dose: 40.0 mg/kg/injection, schedule: Q#A X014 (ip), vehicle: methylcellulose (MC)",56 % of control
CC(=O)Nc1cc2c(cc1Cl)C(=O)c1cc(Cl)ccc1-2,T/C,"dose: 55.0 mg/kg/injection, schedule: Q01DX007 (ip), vehicle: carboxymethylcellulose (CMC)",75 % of control
same,T/C,"dose: 83.0 mg/kg/injection, schedule: Q01DX007 (ip), vehicle: carboxymethylcellulose (CMC)",53 % of control
same,T/C,[4],39 % of control
same,T/C,"dose: 187.5 mg/kg/injection, schedule: Q01DX007 (ip), vehicle: carboxymethylcellulose (CMC)",26 % of control
O=NN(CCCl)C(=O)NCCCl,T/C,"dose: 1.5 mg/kg/injection, schedule: Q01DX007 (ip), vehicle: saline",27 % of control
same,T/C,"dose: 2.6 mg/kg/injection, schedule: Q01DX007 (ip), vehicle: saline",79 % of control
same,T/C,"dose: 3.0 mg/kg/injection, schedule: Q01DX007 (ip), vehicle: saline",44 % of control
same,T/C,"dose: 3.0 mg/kg/injection, schedule: Q01DX007 (oral), vehicle: carboxymethylcellulose (CMC)",60 % of control
same,T/C,"dose: 4.0 mg/kg/injection, schedule: Q01DX007 (ip), vehicle: carboxymethylcellulose (CMC)",75 % of control
same,T/C,"dose: 4.3 mg/kg/injection, schedule: Q01DX007 (ip), vehicle: saline",90 % of control
same,T/C,"dose: 6.0 mg/kg/injection, schedule: Q01DX007 (ip), vehicle: carboxymethylcellulose (CMC)",46 % of control and 58 % of control
same,T/C,"dose: 6.0 mg/kg/injection, schedule: Q01DX007 (ip), vehicle: saline",47 % of control
same,T/C,"dose: 6.0 mg/kg/injection, schedule: Q01DX007 (oral), vehicle: carboxymethylcellulose (CMC)",32 % of control
same,T/C,"dose: 7.2 mg/kg/injection, schedule: Q01DX007 (ip), vehicle: saline",62 % of control
same,T/C,"dose: 8.0 mg/kg/injection, schedule: Q01DX007 (ip), vehicle: carboxymethylcellulose (CMC)",35 % of control
same,T/C,"dose: 10.0 mg/kg/injection, schedule: Q01DX007 (ip), vehicle: carboxymethylcellulose (CMC)",27 % of control
same,T/C,"dose: 12.0 mg/kg/injection, schedule: Q01DX007 (ip), vehicle: carboxymethylcellulose (CMC)",10 % of control
same,T/C,"dose: 12.0 mg/kg/injection, schedule: Q01DX007 (ip), vehicle: saline",36 % of control and 44 % of control
same,T/C,"dose: 12.0 mg/kg/injection, schedule: Q01DX007 (oral), vehicle: carboxymethylcellulose (CMC)",12 % of control
same,T/C,"dose: 20.0 mg/kg/injection, schedule: Q01DX007 (ip), vehicle: saline",24 % of control
same,T/C,"dose: 24.0 mg/kg/injection, schedule: Q01DX007 (oral), vehicle: carboxymethylcellulose (CMC)",6 % of control
CN1CC2CC(C1)c1cccc(=O)n1C2 (stereo not given),T/C,"dose: 6.6 mg/kg/injection, schedule: Q01DX007 (ip), vehicle: saline",111 % of control
same,T/C,"dose: 10.0 mg/kg/injection, schedule: Q01DX007 (ip), vehicle: saline",49 % of control
same,T/C,"dose: 15.0 mg/kg/injection, schedule: Q01DX007 (ip), vehicle: saline",113 % of control
same,T/C,"dose: 22.0 mg/kg/injection, schedule: Q01DX007 (ip), vehicle: saline",74 % of control
O=C(CCN1CC1)OCCOC(=O)CCN1CC1,T/C,"dose: 4.0 mg/kg/injection, schedule: Q#A X014 (ip), vehicle: methylcellulose (MC)",44 % of control
same,T/C,"dose: 6.0 mg/kg/injection, schedule: Q#A X014 (ip), vehicle: methylcellulose (MC)",60 % of control
same,T/C,"dose: 9.0 mg/kg/injection, schedule: Q#A X014 (ip), vehicle: methylcellulose (MC)",50 % of control
CCCCCCCCCCCC1=C(O)C(=O)C(CC2=C(O)C(=O)C(CCCCCCCCCCC)=C(O)C2=O)=C(O)C1=O,T/C,"dose: 7.5 mg/kg/injection, schedule: Q01DX007 (ip), vehicle: carboxymethylcellulose (CMC)",110 % of control
same,T/C,"dose: 15.0 mg/kg/injection, schedule: Q01DX007 (ip), vehicle: carboxymethylcellulose (CMC)",85 % of control
same,T/C,"dose: 30.0 mg/kg/injection, schedule: Q01DX007 (ip), vehicle: carboxymethylcellulose (CMC)",50 % of control
same,T/C,"dose: 60.0 mg/kg/injection, schedule: Q01DX007 (ip), vehicle: carboxymethylcellulose (CMC)",123 % of control
CN(/N=N/N(C)c1ccccc1)c1ccccc1,T/C,"dose: 7.8 mg/kg/injection, schedule: Q01DX007 (ip), vehicle: carboxymethylcellulose (CMC)",72 % of control
same,T/C,"dose: 15.6 mg/kg/injection, schedule: Q01DX007 (ip), vehicle: carboxymethylcellulose (CMC)",62 % of control
same,T/C,"dose: 31.3 mg/kg/injection, schedule: Q01DX007 (ip), vehicle: carboxymethylcellulose (CMC)",75 % of control
same,T/C,"dose: 62.5 mg/kg/injection, schedule: Q01DX007 (ip), vehicle: carboxymethylcellulose (CMC)",49 % of control and 74 % of control
same,T/C,[4],37 % of control
Cc1ncc(CO)c(CNC(=O)N(C)N=O)c1O,T/C,"dose: 62.0 mg/kg/injection, schedule: Q01DX007 (ip), vehicle: carboxymethylcellulose (CMC)",60 % of control
Nc1nc(=O)n(C2CC(O)C(CO)O2)cc1Br (stereo not given),T/C,"dose: 62.5 mg/kg/injection, schedule: Q#A X014 (ip), vehicle: carboxymethylcellulose (CMC)",58 % of control
same,T/C,"dose: 125.0 mg/kg/injection, schedule: Q#A X014 (ip), vehicle: carboxymethylcellulose (CMC)",57 % of control
same,T/C,"dose: 250.0 mg/kg/injection, schedule: Q#A X014 (ip), vehicle: carboxymethylcellulose (CMC)",50 % of control
C[C@H]1CC[C@@H]2[C@@H](C)[C@H]3[C@H](C[C@H]4[C@@H]5CC=C6C[C@@H](O)CC[C@]6(C)[C@H]5C[C@H](O)[C@]34C)N2C1,T/C,"dose: 10.0 mg/kg/injection, schedule: Q01DX007 (sc), vehicle: steriod suspending solution",73 % of control
same,T/C,"dose: 50.0 mg/kg/injection, schedule: Q01DX007 (sc), vehicle: steriod suspending solution",44 % of control
same,T/C,"dose: 100.0 mg/kg/injection, schedule: Q01DX007 (sc), vehicle: steriod suspending solution",62 % of control
C=CN1CCCC1=O,T/C,"dose: 93.0 mg/kg/injection, schedule: Q01DX007 (ip), vehicle: saline",106 % of control
same,T/C,"dose: 98.0 mg/kg/injection, schedule: Q01DX007 (ip), vehicle: saline",70 % of control
same,T/C,[3],57 % of control
same,T/C,"dose: 124.0 mg/kg/injection, schedule: Q01DX007 (ip), vehicle: saline",80 % of control
same,T/C,"dose: 148.0 mg/kg/injection, schedule: Q01DX007 (ip), vehicle: saline",65 % of control
same,T/C,"dose: 150.0 mg/kg/injection, schedule: Q01DX007 (ip), vehicle: saline",78 % of control
same,T/C,"dose: 166.0 mg/kg/injection, schedule: Q01DX007 (ip), vehicle: saline",84 % of control
same,T/C,"dose: 500.0 mg/kg/injection, schedule: Q01DX007 (ip), vehicle: saline",9 % of control
same,T/C,"dose: 750.0 mg/kg/injection, schedule: Q01DX007 (ip), vehicle: saline",20 % of control
COc1ccc(-c2cc(=O)c3c(O)c(OC)c(O)cc3o2)cc1,T/C,[1],73 % of control
same,T/C,[2],79 % of control
same,T/C,[3],85 % of control
